In paper PMC7206119, “RIP1 inhibition blocks inflammatory diseases but not tumor growth or metastases” (Cell Death and Differentiation, 2019):

Columns and labels:
Assay in all cases: biochemical
Parameters in all cases: Thermo Fisher SelectScreen kinase panel: Z'-LYTE and Adapta activity, LanthaScreen binding
[1] = biological target: ACVR1B (Homo sapiens, UniProt P36896)
How it was run: (§1)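 GNE684 profiled at 10 µM across 221 kinases with Z'-LYTE and Adapta activity and LanthaScreen binding formats. Also screened at 10 µM against 468 kinases in KINOMEscan scanMAX binding assay.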

[2] = biological target: T1, ARK5 (Homo sapiens, UniProt O60285)
T1 construct: gene NUAK1
T1 sequence (O60285 whole entry): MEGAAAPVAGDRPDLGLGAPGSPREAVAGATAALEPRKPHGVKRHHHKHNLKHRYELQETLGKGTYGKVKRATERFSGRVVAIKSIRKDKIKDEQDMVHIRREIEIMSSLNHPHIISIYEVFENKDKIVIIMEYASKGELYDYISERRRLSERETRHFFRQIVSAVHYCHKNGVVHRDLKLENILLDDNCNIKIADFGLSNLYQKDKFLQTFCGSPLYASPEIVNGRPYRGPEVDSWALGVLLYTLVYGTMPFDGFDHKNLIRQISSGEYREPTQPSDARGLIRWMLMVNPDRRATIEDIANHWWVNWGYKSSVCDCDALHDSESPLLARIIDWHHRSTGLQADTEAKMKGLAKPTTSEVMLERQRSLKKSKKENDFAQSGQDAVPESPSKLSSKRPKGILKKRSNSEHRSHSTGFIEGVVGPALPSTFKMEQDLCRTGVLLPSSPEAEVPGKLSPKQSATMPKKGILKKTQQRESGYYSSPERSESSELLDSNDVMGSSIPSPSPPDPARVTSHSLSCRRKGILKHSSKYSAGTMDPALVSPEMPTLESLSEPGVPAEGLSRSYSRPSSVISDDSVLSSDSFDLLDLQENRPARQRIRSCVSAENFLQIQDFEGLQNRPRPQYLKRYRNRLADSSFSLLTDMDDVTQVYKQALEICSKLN
How it was run: as §1

[3] = biological target: T2, ASK1 (Homo sapiens, UniProt Q99683)
T2 construct: gene MAP3K5
How it was run: as §1

[4] = biological target: CDK1/cyclinB (Homo sapiens, UniProt P06493)
How it was run: as §1

[5] = biological target: CDK7/cyclinH (Homo sapiens, UniProt P50613)
How it was run: as §1

[6] = biological target: T3, CHK1 (Homo sapiens, UniProt O14757)
T3 construct: gene CHEK1
How it was run: as §1

[7] = biological target: T4, CK1_epsilon1 (Homo sapiens, UniProt P49674)
T4 construct: gene CSNK1E
How it was run: as §1

[8] = biological target: T5, CK1_gamma2 (Homo sapiens, UniProt P78368)
T5 construct: gene CSNK1G2
How it was run: as §1

[9] = biological target: CLK2 (Homo sapiens, UniProt P49760)
How it was run: as §1

[10] = biological target: CLK4 (Homo sapiens, UniProt Q9HAZ1)
CLK4, sequence (Q9HAZ1 whole entry): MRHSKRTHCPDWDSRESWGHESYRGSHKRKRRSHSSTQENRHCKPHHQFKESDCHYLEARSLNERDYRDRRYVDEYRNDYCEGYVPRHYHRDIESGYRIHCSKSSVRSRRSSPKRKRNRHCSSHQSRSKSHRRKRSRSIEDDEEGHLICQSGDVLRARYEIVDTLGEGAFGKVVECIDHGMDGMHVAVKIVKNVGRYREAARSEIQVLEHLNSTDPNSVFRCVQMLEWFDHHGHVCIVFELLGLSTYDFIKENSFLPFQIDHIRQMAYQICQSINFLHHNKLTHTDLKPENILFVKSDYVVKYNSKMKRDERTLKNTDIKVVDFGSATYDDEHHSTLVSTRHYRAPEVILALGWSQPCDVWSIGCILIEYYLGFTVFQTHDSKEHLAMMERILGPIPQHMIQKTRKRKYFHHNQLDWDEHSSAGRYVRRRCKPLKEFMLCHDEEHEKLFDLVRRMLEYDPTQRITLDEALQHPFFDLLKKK
How it was run: as §1

[11] = biological target: CSK (Homo sapiens, UniProt P41240)
How it was run: as §1

[12] = biological target: HIPK2 (Homo sapiens, UniProt Q9H2X6)
How it was run: as §1

[13] = biological target: KIT (Homo sapiens, UniProt P10721)
KIT, sequence (P10721 whole entry): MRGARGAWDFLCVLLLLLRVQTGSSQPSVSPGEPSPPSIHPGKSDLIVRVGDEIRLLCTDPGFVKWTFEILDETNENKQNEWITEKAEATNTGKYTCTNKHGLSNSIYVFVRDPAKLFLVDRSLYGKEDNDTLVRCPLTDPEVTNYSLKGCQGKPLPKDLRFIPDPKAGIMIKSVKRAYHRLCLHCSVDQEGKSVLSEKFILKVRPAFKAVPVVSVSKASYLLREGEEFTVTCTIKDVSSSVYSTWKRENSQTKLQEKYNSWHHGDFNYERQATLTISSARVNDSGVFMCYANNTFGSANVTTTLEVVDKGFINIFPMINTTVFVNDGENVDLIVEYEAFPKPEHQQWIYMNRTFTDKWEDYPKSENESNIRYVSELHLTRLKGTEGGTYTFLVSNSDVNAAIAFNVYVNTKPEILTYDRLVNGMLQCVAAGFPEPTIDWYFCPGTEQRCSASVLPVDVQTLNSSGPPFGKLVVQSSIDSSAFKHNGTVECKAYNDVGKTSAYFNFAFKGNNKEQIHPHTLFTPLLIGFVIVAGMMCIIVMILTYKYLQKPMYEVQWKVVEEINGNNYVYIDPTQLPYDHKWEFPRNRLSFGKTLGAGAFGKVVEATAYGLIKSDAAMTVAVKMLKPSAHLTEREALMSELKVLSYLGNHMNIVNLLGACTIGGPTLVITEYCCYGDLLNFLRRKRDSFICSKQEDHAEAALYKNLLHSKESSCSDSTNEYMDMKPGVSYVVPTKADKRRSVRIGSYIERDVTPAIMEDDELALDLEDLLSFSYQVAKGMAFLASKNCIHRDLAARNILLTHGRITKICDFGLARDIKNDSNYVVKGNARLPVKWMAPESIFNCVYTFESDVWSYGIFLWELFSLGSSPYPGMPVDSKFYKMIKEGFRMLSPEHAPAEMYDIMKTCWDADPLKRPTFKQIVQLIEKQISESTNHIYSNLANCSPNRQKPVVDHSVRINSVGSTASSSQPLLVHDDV
How it was run: as §1

[14] = biological target: LCK (Homo sapiens, UniProt P06239)
LCK, sequence (P06239 whole entry): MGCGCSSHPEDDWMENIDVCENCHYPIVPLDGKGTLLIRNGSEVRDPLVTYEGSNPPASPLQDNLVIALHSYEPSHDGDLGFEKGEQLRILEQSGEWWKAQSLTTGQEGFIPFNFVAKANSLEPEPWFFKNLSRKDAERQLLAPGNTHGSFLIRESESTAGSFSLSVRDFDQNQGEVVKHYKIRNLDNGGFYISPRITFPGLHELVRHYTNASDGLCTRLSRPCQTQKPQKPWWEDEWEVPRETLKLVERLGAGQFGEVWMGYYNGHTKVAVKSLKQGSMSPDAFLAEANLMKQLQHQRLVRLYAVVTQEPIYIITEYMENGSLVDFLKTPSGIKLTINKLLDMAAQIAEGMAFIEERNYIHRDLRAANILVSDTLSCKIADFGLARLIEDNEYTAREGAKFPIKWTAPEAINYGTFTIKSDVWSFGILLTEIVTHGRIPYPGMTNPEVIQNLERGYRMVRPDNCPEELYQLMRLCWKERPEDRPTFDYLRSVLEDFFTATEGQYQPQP
How it was run: as §1

[15] = biological target: LIMK1 (Homo sapiens, UniProt P53667)
LIMK1, sequence (P53667 whole entry): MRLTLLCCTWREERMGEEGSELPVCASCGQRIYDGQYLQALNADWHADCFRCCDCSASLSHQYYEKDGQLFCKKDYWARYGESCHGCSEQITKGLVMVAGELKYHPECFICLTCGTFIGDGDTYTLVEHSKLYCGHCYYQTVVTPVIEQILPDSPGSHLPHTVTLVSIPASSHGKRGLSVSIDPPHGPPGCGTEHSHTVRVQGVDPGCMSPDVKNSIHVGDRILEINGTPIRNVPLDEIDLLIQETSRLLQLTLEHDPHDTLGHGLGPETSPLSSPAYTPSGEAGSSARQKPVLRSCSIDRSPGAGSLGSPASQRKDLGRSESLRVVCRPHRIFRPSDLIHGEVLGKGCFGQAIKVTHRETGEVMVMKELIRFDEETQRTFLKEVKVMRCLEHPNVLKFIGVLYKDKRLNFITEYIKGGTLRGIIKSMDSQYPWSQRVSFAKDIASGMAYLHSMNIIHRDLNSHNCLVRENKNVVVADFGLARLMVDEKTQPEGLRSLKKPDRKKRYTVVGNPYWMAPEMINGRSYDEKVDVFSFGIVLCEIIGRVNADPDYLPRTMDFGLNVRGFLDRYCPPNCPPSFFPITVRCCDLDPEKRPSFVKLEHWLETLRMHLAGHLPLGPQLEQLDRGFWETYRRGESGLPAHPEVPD
How it was run: as §1

[16] = biological target: LRRK2 (Homo sapiens, UniProt Q5S007)
How it was run: as §1

[17] = biological target: T6, MST4 (Homo sapiens, UniProt Q9P289)
T6 construct: gene STK26
How it was run: as §1

[18] = biological target: PAK1 (Homo sapiens, UniProt Q13153)
How it was run: as §1

[19] = biological target: T7, RSK2 (Homo sapiens, UniProt P51812)
T7 construct: gene RPS6KA3
T7 sequence (P51812 whole entry): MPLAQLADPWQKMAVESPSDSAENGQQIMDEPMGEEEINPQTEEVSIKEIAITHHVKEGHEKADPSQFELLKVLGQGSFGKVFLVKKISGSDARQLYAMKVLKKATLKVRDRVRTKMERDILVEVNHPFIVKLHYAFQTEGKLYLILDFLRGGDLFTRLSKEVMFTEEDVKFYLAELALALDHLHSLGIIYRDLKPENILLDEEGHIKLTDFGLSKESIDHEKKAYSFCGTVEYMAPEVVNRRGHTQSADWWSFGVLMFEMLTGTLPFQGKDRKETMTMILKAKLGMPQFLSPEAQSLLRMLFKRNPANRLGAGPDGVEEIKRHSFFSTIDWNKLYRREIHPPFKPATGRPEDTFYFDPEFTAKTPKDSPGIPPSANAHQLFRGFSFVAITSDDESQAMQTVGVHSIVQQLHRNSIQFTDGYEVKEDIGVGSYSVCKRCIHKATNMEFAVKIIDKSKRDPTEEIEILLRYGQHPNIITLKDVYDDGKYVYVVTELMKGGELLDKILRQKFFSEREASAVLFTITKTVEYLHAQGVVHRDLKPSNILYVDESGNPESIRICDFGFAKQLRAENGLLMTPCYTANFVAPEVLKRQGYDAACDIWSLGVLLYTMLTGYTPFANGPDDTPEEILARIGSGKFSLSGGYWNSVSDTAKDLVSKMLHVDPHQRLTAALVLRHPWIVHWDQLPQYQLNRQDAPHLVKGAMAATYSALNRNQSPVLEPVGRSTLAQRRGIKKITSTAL
How it was run: as §1

[20] = biological target: SGK2 (Homo sapiens, UniProt Q9HBY8)
How it was run: as §1

[21] = biological target: TNK2 (Homo sapiens, UniProt Q07912)
How it was run: as §1

[22] = biological target: T8, TSSK1 (Homo sapiens, UniProt Q9BXA7)
T8 construct: gene TSSK1B
How it was run: as §1

[23] = biological target: T9, YSK1 (Homo sapiens, UniProt O00506)
T9 construct: gene STK25
T9 sequence (O00506 whole entry): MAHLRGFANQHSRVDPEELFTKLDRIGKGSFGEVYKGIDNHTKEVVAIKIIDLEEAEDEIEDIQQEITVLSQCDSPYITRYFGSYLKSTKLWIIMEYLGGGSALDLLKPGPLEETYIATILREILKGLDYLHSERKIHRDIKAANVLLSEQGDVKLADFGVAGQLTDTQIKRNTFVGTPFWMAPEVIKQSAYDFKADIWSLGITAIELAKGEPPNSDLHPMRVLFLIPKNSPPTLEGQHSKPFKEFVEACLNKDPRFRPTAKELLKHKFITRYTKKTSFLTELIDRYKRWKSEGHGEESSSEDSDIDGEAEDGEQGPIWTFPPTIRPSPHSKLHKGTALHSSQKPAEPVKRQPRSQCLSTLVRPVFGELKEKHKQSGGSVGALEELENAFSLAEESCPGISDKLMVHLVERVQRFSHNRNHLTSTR
How it was run: as §1

ACVR1B, sequence (P36896 whole entry): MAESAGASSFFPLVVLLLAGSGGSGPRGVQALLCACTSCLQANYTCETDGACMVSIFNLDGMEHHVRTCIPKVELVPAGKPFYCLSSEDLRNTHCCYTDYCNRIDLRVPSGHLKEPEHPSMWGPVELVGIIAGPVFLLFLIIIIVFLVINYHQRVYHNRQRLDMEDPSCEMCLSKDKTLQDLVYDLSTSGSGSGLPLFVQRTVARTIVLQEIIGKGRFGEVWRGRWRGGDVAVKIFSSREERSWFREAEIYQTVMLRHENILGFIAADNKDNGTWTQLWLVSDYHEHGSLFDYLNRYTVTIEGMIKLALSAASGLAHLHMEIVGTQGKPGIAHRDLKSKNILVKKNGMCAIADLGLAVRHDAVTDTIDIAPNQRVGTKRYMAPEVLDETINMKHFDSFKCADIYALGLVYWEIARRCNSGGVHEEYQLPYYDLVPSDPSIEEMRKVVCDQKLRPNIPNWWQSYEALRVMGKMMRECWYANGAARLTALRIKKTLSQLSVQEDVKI

COc1cc2c(cn1)N(C)C(=O)[C@@H](NC(=O)c1nc3n(n1)[C@H](c1ccccc1)CC3)CC2 [GNE684, (S)-N-((S)-7-methoxy-1-methyl-2-oxo-2,3,4,5-tetrahydro-1H-pyrido[3,4-b]azepin-3-yl)-5-phenyl-6,7-dihydro-5H-pyrrolo[1,2-b][1,2,4]triazole-2-carboxamide]
inhibition at 10 µM [1]: -2%
inhibition at 10 µM [2]: -6.5%
inhibition at 10 µM [3]: 4%
inhibition at 10 µM [4]: -0.5%
inhibition at 10 µM [5]: 5%
inhibition at 10 µM [6]: -7%
inhibition at 10 µM [7]: 5%
inhibition at 10 µM [8]: 2%
inhibition at 10 µM [9]: 2.5%
inhibition at 10 µM [10]: 2.5%
inhibition at 10 µM [11]: -1.5%
inhibition at 10 µM [12]: -1.5%
inhibition at 10 µM [13]: 3%
inhibition at 10 µM [14]: 5%
inhibition at 10 µM [15]: 8.5%
inhibition at 10 µM [16]: -19.5%
inhibition at 10 µM [17]: 3.5%
inhibition at 10 µM [18]: 2.5%
inhibition at 10 µM [19]: 4%
inhibition at 10 µM [20]: 5.5%
inhibition at 10 µM [21]: 2.5%
inhibition at 10 µM [22]: 6%
inhibition at 10 µM [23]: 3.5%
